Results from patent US20240352016A1, “A CYCLIN-DEPENDENT KINASE INHIBITOR” (TAIZHOU EOC PHARMA CO., LTD., priority 2021, published 2024).
Counter-ions that a name gives are not always drawn.

Tests used:
CDK7/Cyclin H/MAT1 = target: T1, CDK7/Cyclin H/MAT1 (Homo sapiens, UniProt P50613); assay: CDK kinase activity mobility shift assay (MSA); assay type: biochemical; conditions: The CDK may be CDK7; mobility shift assay, 2 mM ATP, 3 nM CDK/Cyclin, 27° C. for 40 min; read-out: IC50 (CDK inhibition)
T1 construct: made in house; host or cells: insect cell
Protocol: Human CDKs, cyclins and other partner proteins were expressed in insect cell, purified individually, reconstituted and then purified to homogeneity before being used for kinase activity assay.
Kinase activity of CDKs were determined by mobility shift assay (MSA), in which the formation of a phosphorylated fluorescence-labelled peptide in reaction mixture was monitored through capillary electrophoresis in a microfluidic environment. […] The mixtures were incubated at 27° C. for 40 min before being quenched with 4 μl 80 mM EDTA, then read on a LabChip EZ Reader II (Caliper Life Science). IC50 of compound for CDKs was calculated by Prism (GraphPad) using a four-parameter nonlinear curve fit.

HCC70 = assay: Inhibition of cell proliferation (CyQuant), HCC70; assay type: cell-based; conditions: Homo sapiens; HCC70 breast cancer cell line, 120 hour, CyQuant assay kit
Protocol: (§1) Exemplary compounds of the invention were tested at different concentrations (from 10 μM to 610 pM; 4-fold serial dilutions) for their ability to inhibit the proliferation of various cancer cell lines. Known kinase inhibitor staurosporine were used as positive controls. Cells were grown in the indicated media listed below. All cell lines were supplemented with FBS (Life Technologies) and 100 U-mL^−1 penicillin, 100 μg·mL^−1 streptomycin (Invitrogen) and cultured at 37° C. in a humidified chamber in the presence of 5% CO2. Proliferation assays were conducted over a 120 hour time period. CyQuant assay kit (ThermoFisher) was used to assess the anti-proliferative effects of the compounds following manufacturer's directions.
(§2) The following cancer cell lines may be tested with the exemplary media conditions indicated:
(§3) Exemplary results of these assays are set forth in Tables 3, where “A” represents an IC50 value of less than 0.2 μM; “B” represents an IC50 value of between 0.2 μM and 5 μM, inclusive; and “C” represents an IC50 value of greater than 5 μM. “NT” represents that the specified compound was not tested in the specified assay.

OVCAR3 = assay: Inhibition of cell proliferation (CyQuant), OVCAR3; assay type: cell-based; conditions: Homo sapiens, OVCAR-3; OVCAR3 ovarian cancer cell line, 120 hour, CyQuant assay kit
Protocol: as §1, §2
• OVCAR3: RPMI 1640+0.01 mg/mi bovine insulin+20% FBS+1% Glutamax
as §3

T1 sequence (P50613 whole entry): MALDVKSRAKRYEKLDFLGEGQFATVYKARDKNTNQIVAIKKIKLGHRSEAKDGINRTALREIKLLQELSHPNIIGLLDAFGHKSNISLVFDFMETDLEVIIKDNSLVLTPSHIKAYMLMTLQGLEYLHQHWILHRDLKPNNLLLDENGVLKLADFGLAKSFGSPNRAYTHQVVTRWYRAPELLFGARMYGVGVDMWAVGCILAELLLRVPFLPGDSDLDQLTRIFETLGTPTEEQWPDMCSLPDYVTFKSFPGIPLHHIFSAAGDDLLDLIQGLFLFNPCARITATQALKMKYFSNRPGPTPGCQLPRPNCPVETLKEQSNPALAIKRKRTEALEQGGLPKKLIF
T1 sequence (P51946 whole entry partner): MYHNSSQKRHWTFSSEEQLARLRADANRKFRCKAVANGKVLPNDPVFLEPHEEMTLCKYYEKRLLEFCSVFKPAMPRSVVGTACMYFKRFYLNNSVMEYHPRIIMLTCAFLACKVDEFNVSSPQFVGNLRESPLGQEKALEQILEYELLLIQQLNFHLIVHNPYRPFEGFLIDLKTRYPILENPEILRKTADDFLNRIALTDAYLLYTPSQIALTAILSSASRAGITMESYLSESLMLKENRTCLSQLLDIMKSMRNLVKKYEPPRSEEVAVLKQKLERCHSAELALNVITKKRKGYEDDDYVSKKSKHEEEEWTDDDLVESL
T1 sequence (P51948 whole entry partner): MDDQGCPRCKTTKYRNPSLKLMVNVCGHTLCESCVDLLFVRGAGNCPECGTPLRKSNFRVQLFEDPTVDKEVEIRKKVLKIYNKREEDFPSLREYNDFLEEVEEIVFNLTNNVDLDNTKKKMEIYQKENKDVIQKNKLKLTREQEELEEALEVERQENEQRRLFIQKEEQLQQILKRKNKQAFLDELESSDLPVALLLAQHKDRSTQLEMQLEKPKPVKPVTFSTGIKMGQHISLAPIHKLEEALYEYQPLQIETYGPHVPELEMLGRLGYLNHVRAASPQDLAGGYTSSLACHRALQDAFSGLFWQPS

In the case of `CC(C)n1cnc2c(NCc3ccccc3-c3ccnn3C)nc(N3CCC(N)CC3)nc21` [Compound I-12, 2-(4-aminopiperidin-1-yl)-9-isopropyl-N-(2-(1-methyl-1H-pyrazol-5-yl)benzyl)-9H-purin-6-amine], the IC50 (CDK7/Cyclin H/MAT1) is reported as less than 100 nM, the IC50 (HCC70) is reported as less than 200 nM and the IC50 (OVCAR3) is reported as less than 200 nM.

`CC(C)n1cnc2c(NCc3ccccc3-n3ccc(C(C)(C)O)n3)nc(N3CCC(N)CC3)nc21` [Compound I-16, 2-(1-(2-(((2-(4-aminopiperidin-1-yl)-9-isopropyl-9H-purin-6-yl)amino)methyl)phenyl)-1H-pyrazol-3-yl)propan-2-ol] showed an IC50 (CDK7/Cyclin H/MAT1) of less than 100 nM, an IC50 (HCC70) of less than 200 nM and an IC50 (OVCAR3) of less than 200 nM.

`CC(C)n1cnc2c(NCc3ccccc3-n3cccn3)nc(N3CCC(N)C3)nc21` (centres unmarked) [Compound I-36, N-(2-(1H-pyrazol-1-yl)benzyl)-2-(3-aminopyrrolidin-1-yl)-9-isopropyl-9H-purin-6-amine] showed an IC50 (CDK7/Cyclin H/MAT1) of 100 to 500 nM.

For `CC(C)n1cnc2c(NCc3ccccc3-n3cccn3)nc(NC(=O)C3CCNCC3)nc21` [Compound I-21, N-(6-((2-(1H-pyrazol-1-yl)benzyl)amino)-9-isopropyl-9H-purin-2-yl)piperidine-4-carboxamide], the IC50 (CDK7/Cyclin H/MAT1) was greater than 1000 nM.

`CC(C)n1cnc2c(NCc3ccccc3-n3ccc(C(=O)N4CCN(C)CC4)n3)nc(N3CCC(N)CC3)nc21` [Compound I-3, (1-(2-(((2-(4-aminopiperidin-1-yl)-9-isopropyl-9H-purin-6-yl)amino)methyl)phenyl)-1H-pyrazol-3-yl)(4-methylpiperazin-1-yl)methanone] was tested, and the IC50 (CDK7/Cyclin H/MAT1) was less than 100 nM, the IC50 (HCC70) was 200 to 5000 nM and the IC50 (OVCAR3) was 200 to 5000 nM.

With `CC(C)n1cnc2c(NCc3ccccc3-n3cccn3)nc(N[C@H]3CC[C@H](O)CC3)nc21` [Compound I-39, (1R,4R)-4-((6-((2-(1H-pyrazol-1-yl)benzyl)amino)-9-isopropyl-9H-purin-2-yl)amino)cyclohexan-1-ol] the IC50 (CDK7/Cyclin H/MAT1) was 500 to 1000 nM.

In the case of `CNC1CCN(c2nc(NCc3ccccc3-n3cccn3)c3ncn(C(C)C)c3n2)CC1` [Compound I-19, N-(2-(1H-pyrazol-1-yl)benzyl)-9-isopropyl-2-(4-(methylamino)piperidin-1-yl)-9H-purin-6-amine], the IC50 (CDK7/Cyclin H/MAT1) is reported as less than 100 nM, the IC50 (HCC70) is reported as less than 200 nM and the IC50 (OVCAR3) is reported as less than 200 nM.

With `CC(C)n1cnc2c(NCc3ccccc3-n3cccn3)nc(N[C@H]3CCCNC3)nc21` [Compound I-13, (S)-N6-(2-(1H-pyrazol-1-yl)benzyl)-9-isopropyl-N2-(piperidin-3-yl)-9H-purine-2,6-diamine] the IC50 (CDK7/Cyclin H/MAT1) was 100 to 500 nM.

Compound `CC(C)n1cnc2c(NCc3ccccc3-n3cccn3)nc(N3CCC(CN(C)C)CC3)nc21` [Compound I-32, N-(2-(1H-pyrazol-1-yl)benzyl)-2-(4-((dimethylamino)methyl)piperidin-1-yl)-9-isopropyl-9H-purin-6-amine] has an IC50 (CDK7/Cyclin H/MAT1) of 100 to 500 nM.

In the case of `CC(C)n1cnc2c(NCc3ccccc3-n3ccc(C(C)(C)O)n3)nc(NC3CCNCC3)nc21` [Compound I-17, 2-(1-(2-(((9-isopropyl-2-(piperidin-4-ylamino)-9H-purin-6-yl)amino)methyl)phenyl)-1H-pyrazol-3-yl)propan-2-ol], the IC50 (CDK7/Cyclin H/MAT1) is reported as less than 100 nM.

In the case of `CC(C)n1cnc2c(NCc3c(Cl)cccc3-n3ccc(C(C)(C)O)n3)nc(NC3CCNCC3)nc21` [Compound I-18, 2-[1-[3-chloro-2-[[[9-isopropyl-2-(4-piperidylamino)purin-6-yl]amino]methyl]phenyl]pyrazol-3-yl]propan-2-ol], the IC50 (CDK7/Cyclin H/MAT1) is reported as less than 100 nM.

`CC(C)n1cnc2c(NCc3ccccc3-n3ccc(CO)n3)nc(N3CCC(N)CC3)nc21` [Compound I-1, (1-(2-(((2-(4-aminopiperidin-1-yl)-9-isopropyl-9H-purin-6-yl)amino)methyl)phenyl)-1H-pyrazol-3-yl)methanol] showed an IC50 (CDK7/Cyclin H/MAT1) of less than 100 nM.

In the case of `CC(C)n1cnc2c(NCc3ccccc3-n3cccn3)nc(N3CCC(N(C)C)CC3)nc21` [Compound I-26, N-(2-(1H-pyrazol-1-yl)benzyl)-2-(4-(dimethylamino)piperidin-1-yl)-9-isopropyl-9H-purin-6-amine], the IC50 (CDK7/Cyclin H/MAT1) is reported as less than 100 nM.

Compound `CC(C)n1cnc2c(NCc3ccccc3-n3cccn3)nc(N3CCC[C@H](N)C3)nc21` [Compound I-10, (S)—N-(2-(1H-pyrazol-1-yl)benzyl)-2-(3-aminopiperidin-1-yl)-9-isopropyl-9H-purin-6-amine] has an IC50 (CDK7/Cyclin H/MAT1) of less than 100 nM, an IC50 (HCC70) of 200 to 5000 nM and an IC50 (OVCAR3) of 200 to 5000 nM.

In the case of `CC(C)n1cnc2c(NCc3ccccc3-n3cccn3)nc(N3CCC(CN)CC3)nc21` [Compound I-41, N-(2-(1H-pyrazol-1-yl)benzyl)-2-(4-(aminomethyl)piperidin-1-yl)-9-isopropyl-9H-purin-6-amine], the IC50 (CDK7/Cyclin H/MAT1) is reported as 100 to 500 nM.

For `CC(C)n1cnc2c(NCc3ccccc3-n3cccn3)nc(N3CCC(C(=O)N(C)C)CC3)nc21` [Compound I-15, 1-(6-((2-(1H-pyrazol-1-yl)benzyl)amino)-9-isopropyl-9H-purin-2-yl)-N,N-dimethylpiperidine-4-carboxamide], the IC50 (CDK7/Cyclin H/MAT1) was greater than 1000 nM.

Work on `CC(C)n1nccc1-c1ncccc1CNc1nc(N2CCC(N)CC2)nc2c1ncn2C(C)C` [Compound I-6, 2-(4-aminopiperidin-1-yl)-9-isopropyl-N-((2-(1-isopropyl-1H-pyrazol-5-yl)pyridin-3-yl)methyl)-9H-purin-6-amine] yielded an IC50 (CDK7/Cyclin H/MAT1) of less than 100 nM, an IC50 (HCC70) of less than 200 nM and an IC50 (OVCAR3) of less than 200 nM.

`CCn1cnc2c(NCc3ccccc3-n3cccn3)nc(N3CCC(N)CC3)nc21` [Compound I-7, N-(2-(1H-pyrazol-1-yl)benzyl)-2-(4-aminopiperidin-1-yl)-9-ethyl-9H-purin-6-amine hydrochloride] gave an IC50 (CDK7/Cyclin H/MAT1) of less than 100 nM, an IC50 (HCC70) of 200 to 5000 nM and an IC50 (OVCAR3) of 200 to 5000 nM.

Compound `CC(C)n1cnc2c(NCc3ccccc3-n3cccn3)nc(N3CCC(CO)CC3)nc21` [Compound I-40, (1-(6-((2-(1H-pyrazol-1-yl)benzyl)amino)-9-isopropyl-9H-purin-2-yl)piperidin-4-yl)methanol] has an IC50 (CDK7/Cyclin H/MAT1) of 500 to 1000 nM.

With `CC(C)n1cnc2c(NCc3ccccc3-n3cccn3)nc(NCC3(O)CCNCC3)nc21` [Compound I-14, 4-(((6-((2-(1H-pyrazol-1-yl)benzyl)amino)-9-isopropyl-9H-purin-2-yl)amino)methyl)piperidin-4-ol trihydrochloride] the IC50 (CDK7/Cyclin H/MAT1) was 100 to 500 nM.

`c1ccc(-n2cccn2)c(CNc2nc(N3CCNCC3)nc3c2ncn3C2CCCC2)c1` [Compound I-27, N-(2-(1H-pyrazol-1-yl)benzyl)-9-cyclopentyl-2-(piperazin-1-yl)-9H-purin-6-amine] was tested, and the IC50 (CDK7/Cyclin H/MAT1) was less than 100 nM.

`CC(C)n1cnc2c(NCc3ccccc3-n3cccn3)nc(N3CCC(O)(Cn4cc(N)cn4)CC3)nc21` [Compound I-31, 1-(6-((2-(1H-pyrazol-1-yl)benzyl)amino)-9-isopropyl-9H-purin-2-yl)-4-((4-amino-1H-pyrazol-1-yl)methyl)piperidin-4-ol] was tested, and the IC50 (CDK7/Cyclin H/MAT1) was 100 to 500 nM.

`CC(C)n1cnc2c(NCc3ccccc3-n3ccc(C(=O)N4CCN(CCO)CC4)n3)nc(N3CCC(N)CC3)nc21` [Compound I-2, (1-(2-(((2-(4-aminopiperidin-1-yl)-9-isopropyl-9H-purin-6-yl)amino)methyl)phenyl)-1H-pyrazol-3-yl)(4-(2-hydroxyethyl)piperazin-1-yl)methanone] gave an IC50 (CDK7/Cyclin H/MAT1) of less than 100 nM, an IC50 (HCC70) of 200 to 5000 nM and an IC50 (OVCAR3) of 200 to 5000 nM.

Work on `CC(C)n1cnc2c(NCc3ccccc3-c3cnn(C)c3)nc(N3CCC(N)CC3)nc21` [Compound I-8, 2-(4-aminopiperidin-1-yl)-9-isopropyl-N-(2-(1-methyl-1H-pyrazol-4-yl)benzyl)-9H-purin-6-amine] yielded an IC50 (CDK7/Cyclin H/MAT1) of less than 100 nM, an IC50 (HCC70) of 200 to 5000 nM and an IC50 (OVCAR3) of less than 200 nM.

`CC(C)n1cnc2c(NCc3ccccc3-n3cccn3)nc(N3CCC(O)CC3)nc21` [Compound I-37, 1-(6-((2-(1H-pyrazol-1-yl)benzyl)amino)-9-isopropyl-9H-purin-2-yl)piperidin-4-ol] gave an IC50 (CDK7/Cyclin H/MAT1) of 100 to 500 nM.

`CC(C)n1cnc2c(NCc3ccccc3-n3cccn3)nc(N3CCC(C(N)=O)CC3)nc21` [Compound I-38, 1-(6-((2-(1H-pyrazol-1-yl)benzyl)amino)-9-isopropyl-9H-purin-2-yl)piperidine-4-carboxamide] showed an IC50 (CDK7/Cyclin H/MAT1) of 100 to 500 nM.

In the case of `CC(C)N1CCN(c2ccn(-c3ccccc3CNc3nc(N4CCC(N)CC4)nc4c3ncn4C(C)C)n2)CC1` [Compound I-4, 2-(4-aminopiperidin-1-yl)-9-isopropyl-N-(2-(3-(4-isopropylpiperazin-1-yl)-1H-pyrazol-1-yl)benzyl)-9H-purin-6-amine hydrochloride], the IC50 (CDK7/Cyclin H/MAT1) is reported as less than 100 nM, the IC50 (HCC70) is reported as less than 200 nM and the IC50 (OVCAR3) is reported as less than 200 nM.
